Where two headings read alike, the source gives them in different places. Square brackets hold non-standard residues; d marks the D form. Peptide text beside a SMILES is read from it. 2Nal = N[C@@H](Cc1ccc2ccccc2c1)C(=O)O; hPhe = N[C@@H](CCc1ccccc1)C(=O)O; Cha = N[C@@H](CC1CCCCC1)C(=O)O; Chg = N[C@H](C(=O)O)C1CCCCC1; Aib = CC(C)(N)C(=O)O; βAla = NCCC(=O)O

In data set [1] the target is T1, human a-thrombin (Homo sapiens, UniProt P00734).
T1 construct: human a-thrombin
Description: In vitro resistance of the peptides to enzyme hydrolysis by thrombin. It counts as in vitro ADME. The note with it: Tris/HCl buffer pH 7.8, 37° C. The method, then: (§1) The resistance of the compounds of the present invention versus plasmatic proteases was evaluated in vitro in two groups of tests. In the first one, the resistance to proteolysis of thrombin itself was tested incubating the claimed compounds in the presence of thrombin and analysing the mixture at different times. In the second one, the claimed compounds were incubated in plasma of healthy volunteers and, after filtration of the plasma proteins, the supernatants were analyzed by HPLC and capillary electrophoresis.
(§2) In vitro determination of the peptide resistance to enzyme hydrolysis by thrombin.
(§3) 97.2 nmol of hirunorm-I (286 μg), hirunorm-II (285 μg), hirunorm-III (293 μg), were incubated separately with 0.972 nmol of human a-thrombin (35 μg, 3110 Units NIH/mg) in 800 μL of 0.05M Tris/HCl buffer, 0.1M NaCl at pH-7.8 and a temperature of 37° C. 50 μL Aliquots were diluted with 200 μL of 100 mN H3 PO4 and analyzed at pre-set times by capillary electrophoresis on a […] silica Waters capillary, using a Waters Quanta 4000 apparatus fitted with an UV detection at 214 nm. The analyses were carried out at a constant voltage of 18 KV, using a 100 mN phosphoric acid buffer for 25 min. The eluted peaks were collected and analyzed by Fab mass spectrometry.
(§4) ^.sctn. The factors tt and tp are the halving times (min) o
(§5) the inhibitor concentrations in the presence of equimolar amounts of
(§6) thrombin, respectively both alone and in human plasma.

Data set [2] can be described thus: In vitro resistance of the peptides to hydrolysis by plasma proteases. The data set is classed as in vitro ADME. The note with it: human plasma from healthy donors, 37° C.; read-out: τp: halving time of the inhibitor concentration in human plasma. The procedure:
as §1
In vitro determination of the peptides resistance to hydrolysis by plasma proteases.
[…] of hirunorm-I […], hirunorm-II (569 μg), hirunorm-III (585 μg), were separately incubated with 1600 μL of human plasma from heal thy donors at 37° C. for different times. 50 μL aliquots were added with 200 μL of 100 mN H3 PO4. The supernatants were analyzed at pre-set times by HPLC on a Vydac C18 0.46×25 cm column with a straight acetonitrile gradient containing 0.1% (v/v) of trifluoroacetic acid (phase B) against 0.1% (v/v) aqueous trifluoroacetic acid (phase A), from 5 to 70% in B in 35 min at a flow rate of 1 mL/min, with detection at 210 nm. The eluted peaks were collected and analyzed by capillary electrophoresis on a […]×60 cm fused silica Waters capillary, fitted with a UV detector at 214 nm. The analyses were carried out at a constant voltage of 18 KV, using a buffer 100 mN acid phosphoric for 25 min. The eluted peaks were then analyzed by means of Fab mass spectrometry.
as §4, §5, §6

Data set [3] addresses T2, thrombin (Homo sapiens, UniProt P00734). Description: Inhibition of thrombin-mediated hydrolysis of Chromozym TH (Ki). It counts as biochemical. The settings on record: read-out: Ki: hydrolysis inhibition constant of a chromogenic substrate. The method, then:
Moreover, the efficacy of the products of the present invention was also evaluated determining the inhibition constants Ki versus thrombin, using chromogenic substrates.
The inhibition of the hydrolysis, mediated by thrombin, of Chromozym TH by the peptides of the present invention was evaluated according to the literature (Stone, S. R., Hofsteenge, J., Biochemistry, 25, 4622, (1986).
°The hydrolysis inhibition constants of a chromogenic substrate ar

The test system of data set [4] is T3, human α-thrombin.
T3 construct: human a-thrombin
Description: In vitro resistance of the peptides to enzyme hydrolysis by thrombin. It counts as in vitro ADME. The settings on record: isolated enzyme thrombin; human a-thrombin, Tris/HCl buffer pH 7.8, 37° C.; read-out: τt: halving time of the inhibitor concentration in the presence of thrombin alone. The method, then: as §1, §2, §3, §4, §5, §6

Data set [5] deals with T2, thrombin. The settings on record: non covalent 1:1 complex; read-out: Ki of hirudin binding to thrombin; cited from earlier work.

For `CC[C@H](C)[C@H](N)C(=O)N[C@@H](CCCNC(=N)N)C(=O)N[C@@H](Cc1ccccc1)C(=O)N[C@H](C(=O)N[C@@H](CC(=O)O)C(=O)N[C@H](C)C(=O)NCC(=O)NCCC(=O)N1CCC[C@H]1C(=O)N[C@@H](CCC(=O)O)C(=O)N[C@@H](CO)C(=O)N[C@@H](Cc1c[nH]cn1)C(=O)N[C@@H](CCc1ccccc1)C(=O)NCC(=O)NCC(=O)N[C@@H](CC(=O)O)C(=O)N[C@@H](Cc1ccc(O)cc1)C(=O)N[C@@H](CCC(=O)O)C(=O)N[C@@H](CCC(=O)O)C(=O)N[C@H](C(=O)N1CCC[C@H]1C(=O)NC(C)(C)C(=O)NC(C)(C)C(=O)N[C@@H](Cc1ccc(OP(=O)(O)O)cc1)C(=O)N[C@@H](CC1CCCCC1)C(=O)N[C@H](CCC(=O)O)C(=O)O)[C@@H](C)CC)[C@@H](C)O` [Hirunorm-III] (HELM PEPTIDE1{I.R.F.T.D.[dA].G.[bAla].P.E.S.H.[O=C([C@H](CCc1ccccc1)N[*:1])[*:2]].G.G.D.Y.E.E.I.P.[Aib].[Aib].[O=C([C@H](Cc1ccc(OP(=O)(O)O)cc1)N[*:1])[*:2]].[Cha].[dE]}$$$$V2.0), the “τt: halving time of the inhibitor concentration in the presence of thrombin alone” value in data set [1] is recorded as above 480 min. Moreover, the half-life at 1.21 µM in data set [2] came out at 8 h. Also, the Ki in data set [3] is 1 nM.

Consider `CC[C@H](C)[C@H](N)C(=O)N[C@@H](CCCNC(=N)N)C(=O)N[C@@H](Cc1ccccc1)C(=O)N[C@H](C(=O)N[C@@H](CC(=O)O)C(=O)N[C@H](C)C(=O)NCC(=O)NCCC(=O)N1CCC[C@H]1C(=O)N[C@@H](CCC(=O)O)C(=O)N[C@@H](CO)C(=O)N[C@@H](Cc1c[nH]cn1)C(=O)N[C@@H](CCc1ccccc1)C(=O)NCC(=O)NCC(=O)N[C@@H](CC(=O)O)C(=O)N[C@@H](Cc1ccc(O)cc1)C(=O)N[C@@H](CCC(=O)O)C(=O)N[C@@H](CCC(=O)O)C(=O)N[C@H](C(=O)N1CCC[C@H]1C(=O)NC(C)(C)C(=O)NC(C)(C)C(=O)N[C@@H](Cc1ccc(O)cc1)C(=O)N[C@@H](CC1CCCCC1)C(=O)N[C@H](CCC(=O)O)C(=O)O)[C@@H](C)CC)[C@@H](C)O` [Hirunorm-II] (HELM PEPTIDE1{I.R.F.T.D.[dA].G.[bAla].P.E.S.H.[O=C([C@H](CCc1ccccc1)N[*:1])[*:2]].G.G.D.Y.E.E.I.P.[Aib].[Aib].Y.[Cha].[dE]}$$$$V2.0), for which the “τt: halving time of the inhibitor concentration in the presence of thrombin alone” value in data set [1] is given as above 480 min. In data set [2], the half-life at 1.21 µM is 8 h. In addition, the Ki in data set [3] is 2.6 nM.

Regarding `CC[C@H](C)[C@H](NC(=O)[C@H](CCC(=O)O)NC(=O)[C@H](CCC(=O)O)NC(=O)[C@H](Cc1ccc(O)cc1)NC(=O)[C@H](CC(=O)O)NC(=O)CNC(=O)CNC(=O)[C@H](CCc1ccccc1)NC(=O)[C@H](Cc1c[nH]cn1)NC(=O)[C@H](CO)NC(=O)[C@H](CCC(=O)O)NC(=O)[C@@H]1CCCN1C(=O)CCNC(=O)CNC(=O)[C@@H](C)NC(=O)[C@H](CC(=O)O)NC(=O)[C@@H](NC(=O)[C@H](Cc1ccc2ccccc2c1)NC(=O)[C@H](CCCNC(=N)N)NC(=O)[C@@H](N)C1CCCCC1)[C@@H](C)O)C(=O)N1CCC[C@H]1C(=O)NC(C)(C)C(=O)NC(C)(C)C(=O)N[C@@H](Cc1ccc(O)cc1)C(=O)N[C@@H](CC1CCCCC1)C(=O)N[C@H](CCC(=O)O)C(=O)O` [Hirunorm-IV] (H-[Chg]R[2Nal]TD[dA]G[βAla]PESH[hPhe]GGDYEEIP[Aib][Aib]Y[Cha][dE]-OH), the Ki in data set [3] was found to be 2.6 nM.

On to `CC[C@H](C)[C@H](N)C(=O)N[C@@H](CCCNC(=N)N)C(=O)N[C@@H](Cc1ccc(O)cc1)C(=O)N[C@H](C(=O)N[C@@H](CC(=O)O)C(=O)N[C@H](C)C(=O)NCCC(=O)NCCC(=O)N1CCC[C@H]1C(=O)N[C@@H](CCC(=O)O)C(=O)N[C@@H](CC(N)=O)C(=O)N[C@@H](Cc1c[nH]cn1)C(=O)N[C@@H](CC(N)=O)C(=O)N[C@@H](CC(N)=O)C(=O)NCC(=O)N[C@@H](CC(=O)O)C(=O)N[C@@H](Cc1ccccc1)C(=O)N[C@@H](CCC(=O)O)C(=O)N[C@@H](CCC(=O)O)C(=O)N[C@H](C(=O)N1CCC[C@H]1C(=O)NC(C)(C)C(=O)NC(C)(C)C(=O)N[C@@H](Cc1ccc(O)cc1)C(=O)N[C@@H](CC(C)C)C(=O)N[C@@H](CCC(=O)O)C(=O)O)[C@@H](C)CC)[C@@H](C)O` [Hirunorm-I] (HELM PEPTIDE1{I.R.Y.T.D.[dA].[bAla].[bAla].P.E.N.H.N.N.G.D.F.E.E.I.P.[Aib].[Aib].Y.L.E}$$$$V2.0), for which, in data set [4], the half-life at 121.5 µM was above 8 h. In addition, the half-life at 1.21 µM in data set [2] was determined as 5 h. The Ki in data set [3] was found to be 97 nM.

As for `CC[C@H](C)[C@H](NC(=O)[C@H](CCC(=O)O)NC(=O)[C@H](CCC(=O)O)NC(=O)[C@H](Cc1ccc(O)cc1)NC(=O)[C@H](CC(=O)O)NC(=O)CNC(=O)CNC(=O)[C@H](CCc1ccccc1)NC(=O)[C@H](Cc1c[nH]cn1)NC(=O)[C@H](CO)NC(=O)[C@H](CCC(=O)O)NC(=O)[C@@H]1CCCN1C(=O)CCNC(=O)CNC(=O)[C@@H](C)NC(=O)[C@H](CC(=O)O)NC(=O)[C@@H](NC(=O)[C@H](Cc1ccc2ccccc2c1)NC(=O)[C@@H](NC(=O)[C@@H](N)C1CCCCC1)C(C)C)[C@@H](C)O)C(=O)N1CCC[C@H]1C(=O)NC(C)(C)C(=O)NC(C)(C)C(=O)N[C@@H](Cc1ccc(O)cc1)C(=O)N[C@@H](CC1CCCCC1)C(=O)N[C@H](CCC(=O)O)C(=O)O` [Hirunorm-V] (H-[Chg]V[2Nal]TD[dA]G[βAla]PESH[hPhe]GGDYEEIP[Aib][Aib]Y[Cha][dE]-OH), the Ki in data set [3] was found to be 1 nM.

With Hirudin, the Ki in data set [5] is 0.063 nM.

These data come from US5723576A, “Thrombin inhibitors, the preparation thereof and the use thereof for therapeutical, prophylactic and diagnostic applications” (Development Biotechnological Processes S.N.C., priority 1993, dated 1998).
